“Also recorded” adds a separate entry of the source.
Assays:
[1] = test system: C. albicans strain SC5314; assay: Candida albicans germ tube formation (morphological transition); format: cell-based; conditions: 37° C., 3 h, solvent control about 70%
Protocol: C. albicans strain SC5314 was incubated at 28° C. for overnight with shaking in the GMM medium consisting of 6.7 g of Bacto yeast nitrogen base (Difco) and 0.2% glucose (pH 7.2). C. albicans cells proliferate in yeast form under these conditions. The yeast cells were then diluted 20-fold in fresh GMM medium with or without MDEA. The cells were induced for 3 h at 37° C. Visualization and quantification of germ tube formation were performed using a phase contrast microscope (Olympus BX50) by counting about 400 C. albicans cells. The experiment was repeated twice, and the imaging was done with an Olympus DP70 digital camera.
Candida albicans is a fungal pathogen responsible for various forms of candiasis ranging from mucosal damages to serious systemic infections. It normally exists as a yeast but can form germ tubes (mycelia) under certain environmental conditions including human body temperature and serum. This morphological transition ability is critical for the fungal pathogen to establish infections. Mutants defective in morphological transitions are avirulent and unable to cause infections (Lo et al., 1997; Braun et al., 2000; Saville et al., 2003; Zheng et al., 2003). […] MDEA represents another structurally different unsaturated fatty acid. To determine its potential inhibitory activity MDEA was added to medium at various concentrations before inoculation of the fungal yeast cells, using methanol as a solvent control. After incubation at 37° C. for 3 h, about 70% of C. albicans cells in solvent control formed germ tubes (FIG. 4). In contrast, less than 30% and 5% of yeast cells could germinate in the presence of 0.5 or 5 μM of MDEA (FIG. 4). When the concentration was increased to 25 μM, the germ tube formation was reduced to 0.17% (FIG. 4).

exsC = assay: Semi-quantitative RT-PCR of T3SS gene expression; format: cell-based, Pseudomonas aeruginosa; conditions: MDEA treatment, concentration not given
Protocol: Bacteria were grown in LB medium supplemented with 10 mM NTA at 37° C. with shaking (250 rpm) overnight were diluted to an OD600 of 0.05 in fresh LB medium and grown under the same conditions to an OD600 of 1.5. RNA samples were isolated using the RNeasy mini kit according to the manufacturer's instructions (Qiagen). The concentration and purity of RNA were determined by spectrometry and agarose gel electrophoresis. RT-PCR analysis was performed using the One-step RT-PCR kit according to the manufacturer's instructions (Qiagen) with the primer pairs RT-C—F/RT-C—R ((5′-[…] (SEQ ID NO: 5), 5′-[…] (SEQ ID NO: 6)).
The effect of MDEA on inhibition of T3SS was further analyzed by semi-quantitative RT-PCR. […] The data are consistent with the results based on the T3SS reporter (FIG. 3a).

[2] = test system: Xanthomonas campestris strain 8004dF; assay: Biofilm assay (Xcc biofilm dispersal, cell aggregates by phase contrast microscopy); format: cell-based; conditions: YEB medium
Protocol: For analysis of biofilm formation, a single colony of Xanthomonas campestris strain 8004dF (He et al., 2006) was inoculated and grown overnight at 28° C. in 5 ml of YEB medium. The bacterial cells in culture were visualized with a phase contrast microscope (Olympus BX50) and photographs were taken with an Olympus DP70 digital camera.
Given its structural similarity to DSF (Wang et al., 2004), which is known to regulate biofilm dispersal (Dow et al., 2003; He et al., 2006), MDEA was tested for its ability to promote Xcc biofilm dispersion. The Xcc DSF mutant ΔrpfF, which formed extensive cell aggregates (biofilm) in YEB medium (FIG. 2a), was used in this assay.

[3] = test system: PexsCEBA-lacZ (T3SS reporter strain); assay: T3SS reporter PexsCEBA-lacZ β-galactosidase activity; format: cell-based, Pseudomonas aeruginosa; conditions: LB medium with 10 mM NTA, OD600 about 1.5
Source text: The promoter of exsCEBA was amplified by PCR using the primer pairs pC-F/pC-R ((5′-[…] (SEQ ID NO: 3)/5′-ggggcgcctcctaaagctc (SEQ ID NO: 4)), and cloned into the integration vector mini-CTX-lacZ (Zhou et al., 2007; Hoang et al., 2000; Becher and Schweizer, 2000). The construct was introduced into E. coli S17-1(λpir) and then integrated into the chromosome of P. aeruginosa as described previously (Hoang et al., 2000). The P. aeruginosa transconjugants were then selected on LB agar plates containing 100 μg/ml tetracycline and used as the T3SS reporter strain.
For determination of the inhibitory activity against T3SS, MDEA was added to the LB medium supplemented with 10 mM NTA before inoculation of the T3SS reporter strain. After incubation at 37° C. till OD600 reached about 1.5, the bacterial cells were harvested by centrifugation to measure the β-galactosidase activities following the method previously described (Jeffrey, 1992).
Type III secretion system (T3SS) is a major virulence determinant conserved in many Gram-negative bacterial pathogens. To test the ability of MDEA on regulation of T3SS gene expression in Pseudomonas aeruginosa, the T3SS reporter construct PexsCEBA-lacZ (Zhou et al., 2007) was used. The promoter PexsCEBA directs the expression of the T3SS master regulator ExsA, which positively controls the expression of all T3SS genes in P. aeruginosa (Yahr and Wolfgang, 2006; Frank, 1997).

CC(C)CCCCC=CC/C=C\C(=O)O [MDEA, cis-11-methyldodeca-2,5-dienoic acid]
yeast cells that germinate (germ tube formation) ([1]; 0.5 μM MDEA): less than 30% | yeast cells that germinate (germ tube formation) ([1]; 5 μM MDEA): < 5% | germ tube formation ([1]; 25 μM MDEA): 0.17% | reduction in transcriptional expression of exsC (exsC): about 60% | Effect on cell aggregates (biofilm) of Xcc DSF-deficient mutant ([2]; 1 μM MDEA): inhibited 8004dF biofilm formation; also recorded: eliminated most of the cell aggregates | Effect on cell aggregates (biofilm) of Xcc DSF-deficient mutant ([2]; 5 μM MDEA): inhibited 8004dF biofilm formation; also recorded: all the cell aggregates disappeared | reduction of PexsCEBA-lacZ activity ([3]; 5 μM MDEA): 64.1% | reduction of PexsCEBA-lacZ activity ([3]; 10 μM MDEA): 68.5% | reduction of PexsCEBA-lacZ activity ([3]; 25 μM MDEA): 74.4%
